The results in this text go back to patent US8106055B2, “Substituted amide compounds” (Gruenenthal GmbH, priority 2007, dated 2012).

For assay [1], the target named is T1, bradykinin 1 receptor (B1R) of the rat (Rattus norvegicus, UniProt P97583).
T1 construct: expressed in transfected cells; host or cells: CHO K1 cells
T1 sequence (P97583 1-337): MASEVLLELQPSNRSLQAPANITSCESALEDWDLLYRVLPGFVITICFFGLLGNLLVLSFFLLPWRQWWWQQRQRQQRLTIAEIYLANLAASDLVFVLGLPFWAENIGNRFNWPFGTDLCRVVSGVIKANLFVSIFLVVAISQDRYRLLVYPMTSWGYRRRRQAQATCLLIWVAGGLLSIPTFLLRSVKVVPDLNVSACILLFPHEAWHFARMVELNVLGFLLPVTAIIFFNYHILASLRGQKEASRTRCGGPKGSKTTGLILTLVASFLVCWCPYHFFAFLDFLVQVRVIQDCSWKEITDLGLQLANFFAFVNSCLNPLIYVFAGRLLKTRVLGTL
The experiment in a line: Functional investigation on the rat bradykinin 1 receptor (B1R), Ca2+ FLIPR assay in CHO K1 rB1R cells. The assay is classed as cell-based. The note with it: CHO-K1, B1R antagonism rat, test substance 10 μM, read-out: B1R Ant. r [10 μM] % Inhibition. The essentials: (§1)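 Peak Ca2+-dependent fluorescence in B1R-transfected CHO K1 cells measures antagonism of an EC80 agonist challenge given 10-20 min after compound. Agonist is Lys-Des-Arg9-bradykinin for human, Des-Arg9-bradykinin for rat receptor.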

Assay [2] deals with T2, human bradykinin 1 receptor (B1R) (Homo sapiens, UniProt P46663).
T2 construct: expressed in transfected cells; host or cells: CHO K1 cells
T2 sequence (P46663 1-353): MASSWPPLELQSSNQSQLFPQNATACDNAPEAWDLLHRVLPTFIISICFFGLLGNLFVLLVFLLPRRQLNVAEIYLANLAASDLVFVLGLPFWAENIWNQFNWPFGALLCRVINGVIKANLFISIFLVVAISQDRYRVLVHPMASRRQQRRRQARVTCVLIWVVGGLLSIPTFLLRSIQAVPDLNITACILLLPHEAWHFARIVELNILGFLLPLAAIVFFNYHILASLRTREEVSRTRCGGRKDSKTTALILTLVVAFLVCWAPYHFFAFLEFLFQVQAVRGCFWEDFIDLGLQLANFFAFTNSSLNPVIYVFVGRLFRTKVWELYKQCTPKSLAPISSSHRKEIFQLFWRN
Put plainly: Functional investigation on the human bradykinin 1 receptor (B1R), Ca2+ FLIPR assay in CHO K1 hB1R cells. The assay is classed as cell-based. As to conditions: CHO-K1, B1R antagonism human, test substance 10 μM, read-out: B1R Ant. h [10 μM] % Inhibition. In a few lines: as §1

The target of another assay is T3, human μ opiate receptor (Homo sapiens, UniProt P35372).
T3 construct: purchased PerkinElmer Life Sciences, Zaventem, Belgium RB-HOM; host or cells: CHO-K1 cells (membrane preparation)
Put plainly: Affinity for the human μ opiate receptor ([3H]-naloxone displacement, CHO-K1 receptor membrane preparation, SPA). The assay is classed as binding. As to conditions: 1.5 h, Table 3, to be read in the same way as Table 1; test concentration 1 μM; read-out: μ. The essentials: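 SPA, CHO-K1 hμ membranes; 1 nmol/l [3H]-naloxone; Tris-HCl 50 mmol/l + 0.06% BSA; 90 min RT; NSB with 100 μmol/l naloxone; β-counting. Readout: % inhibition of specific binding at 1 μM test compound.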

[3] abbreviates: % inhibition compared with the maximum achievable inhibition.

Where two headings read alike, the source gives them in different places.

T3 sequence (P35372 whole entry): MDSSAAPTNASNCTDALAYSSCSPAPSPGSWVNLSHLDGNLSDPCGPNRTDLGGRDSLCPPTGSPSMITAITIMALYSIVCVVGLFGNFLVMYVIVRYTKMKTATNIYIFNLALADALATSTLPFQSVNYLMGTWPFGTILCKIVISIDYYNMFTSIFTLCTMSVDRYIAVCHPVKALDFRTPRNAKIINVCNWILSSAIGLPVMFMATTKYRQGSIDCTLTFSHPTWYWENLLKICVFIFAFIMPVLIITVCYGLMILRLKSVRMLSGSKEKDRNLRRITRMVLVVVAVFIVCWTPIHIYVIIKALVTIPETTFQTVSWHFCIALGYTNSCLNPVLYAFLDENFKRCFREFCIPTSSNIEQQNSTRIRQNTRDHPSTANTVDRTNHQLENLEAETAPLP

Turning to `O=C(COCC1CCCN(S(=O)(=O)c2c(Cl)cc(Cl)cc2Cl)C1)NCC1CCC(C(CCc2ccccc2)N2CCCC2)CC1` (stereo not drawn) [Example 759, N-((4-(3-phenyl-1-(pyrrolidin-1-yl)propyl)cyclohexyl)methyl)-2-((1-(2,4,6-trichlorophenylsulfonyl)piperidin-3-yl)methoxy)acetamide], the inhibition at 10 µM was determined as 56% in assay [1] (Ca2+ FLIPR, CHO K1 rB1R cells) and 100% in assay [2] (Ca2+ FLIPR, CHO K1 hB1R cells). At human μ opiate receptor, the inhibition at 1 µM turned out to be 87%.

Consider `CN1CCN(C(Cc2ccccc2)C2CCN(C(=O)COCC3CCc4ccccc4N3S(=O)(=O)c3ccc(Cl)c(Cl)c3)CC2)CC1` (stereo not drawn) [Example 812, 2-((1-(3,4-dichlorophenylsulfonyl)-1,2,3,4-tetrahydroquinolin-2-yl)methoxy)-1-(4-(1-(4-methylpiperazin-1-yl)-2-phenylethyl)piperidin-1-yl)ethanone], for which the inhibition at 10 µM came out at 98% in assay [1] (setting [3]) and 105% in assay [2] (setting [3]). Also, on human μ opiate receptor, the inhibition at 1 µM came out at 37%.

As for `COc1cc(C)c(S(=O)(=O)N(C)CCOCC(=O)N2CCC(C(c3cccc(F)c3)N3CCN(C)CC3)CC2)c(C)c1` (stereo not drawn) [Example 799, N-(2-(2-(4-((3-fluorophenyl)(4-methylpiperazin-1-yl)methyl)piperidin-1-yl)-2-oxoethoxy)ethyl)-4-methoxy-N,2,6-trimethylbenzenesulfonamide], the inhibition at 10 µM was 100% in assay [1] (setting [3]) and 110% in assay [2] (setting [3]). At human μ opiate receptor, the inhibition at 1 µM was 16%.

For `CN(CCOCC(=O)NC1CCC(C(c2ccccc2)N2CCCC2)CC1)S(=O)(=O)c1c(Cl)cccc1Cl` (stereo not drawn) [Example 634, 2-(2-(2,6-dichloro-N-methylphenylsulfonamido)ethoxy)-N-(4-(phenyl(pyrrolidin-1-yl)methyl)cyclohexyl)acetamide], the inhibition at 10 µM in assay [1] (Ca2+ FLIPR, CHO K1 rB1R cells) was 38%; in assay [2] (Ca2+ FLIPR, CHO K1 hB1R cells), 92%. Besides, on human μ opiate receptor, the inhibition at 1 µM was 68%.

Take `COc1cc(C)c(S(=O)(=O)N2CCCC(COCC(=O)NC3CCC(C(CCc4ccccc4)N4CCCCC4)CC3)C2)c(C)c1` (stereo not drawn) [Example 740, 2-((1-(4-methoxy-2,6-dimethylphenylsulfonyl)piperidin-3-yl)methoxy)-N-(4-(3-phenyl-1-(piperidin-1-yl)propyl)cyclohexyl)acetamide]: the inhibition at 10 µM in assay [1] (Ca2+ FLIPR, CHO K1 rB1R cells) was 70%; in assay [2] (Ca2+ FLIPR, CHO K1 hB1R cells) it was 79%. At human μ opiate receptor, the inhibition at 1 µM was determined as 15%.

Regarding `COc1cc(C)c(S(=O)(=O)N2CCCCC2COCC(=O)NCC2CCC(C(c3ccccc3)N3CCCC3)CC2)c(C)c1` (stereo not drawn) [Example 657, 2-((1-(4-methoxy-2,6-dimethylphenylsulfonyl)piperidin-2-yl)methoxy)-N-((4-(phenyl(pyrrolidin-1-yl)methyl)cyclohexyl)methyl)acetamide], the inhibition at 10 µM in assay [1] (Ca2+ FLIPR, CHO K1 rB1R cells) turned out to be 105%; in assay [2] (Ca2+ FLIPR, CHO K1 hB1R cells), 104%. Also, the inhibition at 1 µM on human μ opiate receptor came out at 84%.

Turning to `O=C(COC1CCN(S(=O)(=O)c2c(Cl)cc(Cl)cc2Cl)C1)NCC1CCC(C(CCc2ccccc2)N2CCOCC2)CC1` (stereo not drawn) [Example 745, N-((4-(1-morpholino-3-phenylpropyl)cyclohexyl)methyl)-2-(1-(2,4,6-trichlorophenylsulfonyl)pyrrolidin-3-yloxy)acetamide], the inhibition at 10 µM in assay [1] (Ca2+ FLIPR, CHO K1 rB1R cells) is 44%; in assay [2] (Ca2+ FLIPR, CHO K1 hB1R cells), 45%. Also, the inhibition at 1 µM on human μ opiate receptor came out at 8%.

On to `COc1cc(C)c(S(=O)(=O)N(C)CCOCC(=O)NCC2CCC(C(c3ccccc3)N3CCOCC3)CC2)c(C)c1` (stereo not drawn) [Example 718, 2-(2-(4-methoxy-N,2,6-trimethylphenylsulfonamido)ethoxy)-N-((4-(morpholino(phenyl)methyl)cyclohexyl)methyl)acetamide], for which the inhibition at 10 µM turned out to be 96% in assay [1] (Ca2+ FLIPR, CHO K1 rB1R cells) and 105% in assay [2] (Ca2+ FLIPR, CHO K1 hB1R cells). At human μ opiate receptor, the inhibition at 1 µM turned out to be 4%.

On to `O=C(COC1CCN(S(=O)(=O)c2c(Cl)cc(Cl)cc2Cl)C1)NC1CCC(C(c2ccccc2)N2CCCC2)CC1` (stereo not drawn) [Example 635, N-(4-(phenyl(pyrrolidin-1-yl)methyl)cyclohexyl)-2-(1-(2,4,6-trichlorophenylsulfonyl)pyrrolidin-3-yloxy)acetamide], for which the inhibition at 10 µM worked out at 22% in assay [1] (Ca2+ FLIPR, CHO K1 rB1R cells) and 67% in assay [2] (Ca2+ FLIPR, CHO K1 hB1R cells). Besides, at human μ opiate receptor, the inhibition at 1 µM turned out to be 78%.

Regarding `O=C(COC1CCCN(S(=O)(=O)c2c(Cl)cc(Cl)cc2Cl)C1)NCC1CCC(C(CCc2ccccc2)N2CCOCC2)CC1` (stereo not drawn) [Example 747, N-((4-(1-morpholino-3-phenylpropyl)cyclohexyl)methyl)-2-(1-(2,4,6-trichlorophenylsulfonyl)piperidin-3-yloxy)acetamide], the inhibition at 10 µM in assay [1] (Ca2+ FLIPR, CHO K1 rB1R cells) worked out at 32%; in assay [2] (Ca2+ FLIPR, CHO K1 hB1R cells), 24%. For the same compound, the inhibition at 1 µM on human μ opiate receptor turned out to be 23%.

Regarding `COc1cc(C)c(S(=O)(=O)N2CCCCC2COCC(=O)NCC2CCC(C(CCc3ccccc3)N3CCCC3)CC2)c(C)c1` (stereo not drawn) [Example 736, 2-((1-(4-methoxy-2,6-dimethylphenylsulfonyl)piperidin-2-yl)methoxy)-N-((4-(3-phenyl-1-(pyrrolidin-1-yl)propyl)cyclohexyl)methyl)acetamide], the inhibition at 10 µM was determined as 102% in assay [1] (Ca2+ FLIPR, CHO K1 rB1R cells) and 103% in assay [2] (Ca2+ FLIPR, CHO K1 hB1R cells). The inhibition at 1 µM at human μ opiate receptor came out at 34%.

Regarding `CN1CCN(C(c2ccccc2)C2CCC(NC(=O)COC3CCCN(S(=O)(=O)c4c(Cl)cc(Cl)cc4Cl)C3)CC2)CC1` (stereo not drawn) [Example 692, N-(4-((4-methylpiperazin-1-yl)(phenyl)methyl)cyclohexyl)-2-(1-(2,4,6-trichlorophenylsulfonyl)piperidin-3-yloxy)acetamide], the inhibition at 10 µM in assay [1] (Ca2+ FLIPR, CHO K1 rB1R cells) was 41%; in assay [2] (Ca2+ FLIPR, CHO K1 hB1R cells), 78%. The inhibition at 1 µM on human μ opiate receptor amounted to 65%.

With `CN(CCOCC(=O)NCC1CCC(C(c2ccccc2)N2CCCC2)CC1)S(=O)(=O)c1c(Cl)cccc1Cl` (stereo not drawn) [Example 643, 2-(2-(2,6-dichloro-N-methylphenylsulfonamido)ethoxy)-N-((4-(phenyl(pyrrolidin-1-yl)methyl)cyclohexyl)methyl)acetamide], the inhibition at 10 µM in assay [1] (Ca2+ FLIPR, CHO K1 rB1R cells) was found to be 62%; in assay [2] (Ca2+ FLIPR, CHO K1 hB1R cells) it was 102%. Besides, the inhibition at 1 µM at human μ opiate receptor was found to be 76%.

On to `O=C(COCC1CCCCN1S(=O)(=O)c1c(Cl)cc(Cl)cc1Cl)NC1CCC(C(c2ccccc2)N2CCOCC2)CC1` (stereo not drawn) [Example 700, N-(4-(morpholino(phenyl)methyl)cyclohexyl)-2-((1-(2,4,6-trichlorophenylsulfonyl)piperidin-2-yl)methoxy)acetamide], for which the inhibition at 10 µM in assay [1] (Ca2+ FLIPR, CHO K1 rB1R cells) is 89%; in assay [2] (Ca2+ FLIPR, CHO K1 hB1R cells) it was 38%. The inhibition at 1 µM at human μ opiate receptor turned out to be 27%.

On to `O=C(COC1CCCN(S(=O)(=O)c2c(Cl)cc(Cl)cc2Cl)C1)NCC1CCC(C(CCc2ccccc2)N2CCCC2)CC1` (stereo not drawn) [Example 729, N-((4-(3-phenyl-1-(pyrrolidin-1-yl)propyl)cyclohexyl)methyl)-2-(1-(2,4,6-trichlorophenylsulfonyl)piperidin-3-yloxy)acetamide], for which the inhibition at 10 µM in assay [1] (Ca2+ FLIPR, CHO K1 rB1R cells) was found to be 22%; in assay [2] (Ca2+ FLIPR, CHO K1 hB1R cells), 92%. Moreover, at human μ opiate receptor, the inhibition at 1 µM was 79%.

On to `COc1cc(C)c(S(=O)(=O)N2CCCCC2COCC(=O)N2CCC(C(CCc3ccccc3)N3CCN(C)CC3)CC2)c(C)c1` (stereo not drawn) [Example 806, 2-((1-(4-methoxy-2,6-dimethylphenylsulfonyl)piperidin-2-yl)methoxy)-1-(4-(1-(4-methylpiperazin-1-yl)-3-phenylpropyl)piperidin-1-yl)ethanone], for which the inhibition at 10 µM amounted to 99% in assay [1] (setting [3]) and 109% in assay [2] (setting [3]). Moreover, at human μ opiate receptor, the inhibition at 1 µM amounted to 12%.

Regarding `CN1CCN(C(c2ccccc2)C2CCC(NC(=O)COCCN(C)S(=O)(=O)c3c(Cl)cc(C(F)(F)F)cc3Cl)CC2)CC1` (stereo not drawn) [Example 690, 2-(2-(2,6-dichloro-N-methyl-4-(trifluoromethyl)phenylsulfonamido)ethoxy)-N-(4-((4-methylpiperazin-1-yl)(phenyl)methyl)cyclohexyl)acetamide], the inhibition at 10 µM was 30% in assay [1] (Ca2+ FLIPR, CHO K1 rB1R cells) and 54% in assay [2] (Ca2+ FLIPR, CHO K1 hB1R cells). Also, at human μ opiate receptor, the inhibition at 1 µM worked out at 26%.
